Laboratory results taken from PubChem BioAssay (NCI).
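Compound exposure: 48 hours, 5 concentrations, 96-well plates. Here, GI50 denotes the concentration required for 50% inhibition of growth. TGI is the concentration that stops growth completely.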 Where a SMILES comes first, the peptide text is derived from it. [ ]: non-standard residue; d: D form. The star is where a group is joined. ξ: configuration not given here. dIva = CC[C@@](C)(N)C(=O)O; Aib = CC(C)(N)C(=O)O; ξP = O=C(O)C1CCCN1; βAla = NCCC(=O)O; X5 = OCN*

What was measured:
Test in all cases: NCI-60 cell line screen, 48 h
[1] = system: HCC-2998 colon
[2] = system: HCT-116 colon
[3] = system: ACHN renal
[4] = system: OVCAR-4 ovarian
[5] = system: SK-MEL-28 melanoma
[6] = system: EKVX NSCLC
[7] = system: SK-MEL-5 melanoma
[8] = system: LOX IMVI melanoma
[9] = system: NCI-H226 lung
[10] = system: SF-539 CNS

## O=C(O)CSc1nnc2c3ccccc3c3ccccc3c2n1
[1]
  TGI: > 100 µM
[2]
  TGI: > 100 µM
[3]
  TGI: > 100 µM
[4]
  TGI: > 100 µM
[5]
  TGI: > 100 µM
[6]
  TGI: > 100 µM
[7]
  TGI: > 100 µM
[8]
  TGI: > 100 µM
[9]
  TGI: > 100 µM
[10]
  TGI: > 100 µM

## CCCCCCC(=O)CC(=O)C(=O)Nc1ccccc1C
[1]
  TGI: > 100 µM
[2]
  TGI: > 100 µM
[3]
  TGI: > 100 µM
[4]
  TGI: > 100 µM
[5]
  TGI: > 100 µM
[6]
  TGI: > 100 µM
[7]
  TGI: > 100 µM
[8]
  TGI: > 59 µM
[9]
  TGI: > 100 µM
[10]
  TGI: > 100 µM

## Nc1ncnc2c1ncn2COC/C=C/I
[1]
  TGI: > 100 µM
[2]
  TGI: > 100 µM
[3]
  TGI: > 100 µM
[4]
  TGI: > 100 µM
[5]
  TGI: > 100 µM
[6]
  TGI: > 100 µM
[7]
  TGI: > 100 µM
[8]
  TGI: > 100 µM
[9]
  TGI: > 100 µM
[10]
  TGI: > 100 µM

## O=S1Cc2ccccc2CSS1 (stereo not given)
[1]
  TGI: 73.7 µM
[2]
  TGI: 28.3 µM
[3]
  TGI: 30.9 µM
[4]
  TGI: 31.7 µM
[5]
  TGI: 26.8 µM
[6]
  TGI: 53.9 µM
[7]
  TGI: 26.3 µM
[8]
  TGI: 17.3 µM
[9]
  TGI: 55.4 µM
[10]
  TGI: 29.8 µM

## COC(=O)C1=C(O)C(C(=O)OC)[C@@]2(O)[C@@H](C(=O)OC)C(c3ccccc3Cl)C[C@@H]1[C@@H]2C(=O)OC (stereo not given in full)
[1]
  GI50: 14 µM
  TGI: 28.6 µM
[2]
  GI50: 1.97 µM
  TGI: 4.12 µM
[3]
  GI50: 5.96 µM
  TGI: 23.4 µM
[4]
  GI50: 3.44 µM
  TGI: 13.8 µM
[5]
  GI50: 7.16 µM
  TGI: 30.4 µM
[6]
  GI50: 19.4 µM
  TGI: 38.3 µM
[7]
  GI50: 11.1 µM
  TGI: 24.2 µM
[8]
  GI50: 4.43 µM
  TGI: 17 µM
[9]
  GI50: 3.77 µM
  TGI: 15.1 µM
[10]
  GI50: 14 µM
  TGI: 36.7 µM

## CC1SC(c2cccc(Cl)c2)N(NC(=O)C(O)c2ccccc2)C1=O (stereo not given)
[1]
  GI50: > 100 µM
  TGI: > 100 µM
[2]
  GI50: > 100 µM
  TGI: > 100 µM
[3]
  GI50: > 100 µM
  TGI: > 100 µM
[4]
  GI50: 75.4 µM
  TGI: > 100 µM
[5]
  GI50: > 100 µM
  TGI: > 100 µM
[6]
  GI50: > 100 µM
  TGI: > 100 µM
[7]
  GI50: > 100 µM
  TGI: > 100 µM
[8]
  GI50: > 100 µM
  TGI: > 100 µM
[9]
  GI50: > 100 µM
  TGI: > 100 µM
[10]
  GI50: > 100 µM
  TGI: > 100 µM

## CC1CC2(C)CC(=O)C1C1C(=O)N(CCN3CCOCC3)C(=O)C12 (stereo not given)
[1]
  GI50: > 100 µM
  TGI: > 100 µM
[2]
  GI50: > 100 µM
  TGI: > 100 µM
[3]
  GI50: > 100 µM
  TGI: > 100 µM
[4]
  GI50: > 100 µM
  TGI: > 100 µM
[5]
  GI50: > 100 µM
  TGI: > 100 µM
[6]
  GI50: > 100 µM
  TGI: > 100 µM
[7]
  GI50: > 100 µM
  TGI: > 100 µM
[8]
  GI50: > 100 µM
  TGI: > 100 µM
[9]
  GI50: > 100 µM
  TGI: > 100 µM
[10]
  GI50: > 100 µM
  TGI: > 100 µM

## CC[C@@](C)(NC(=O)[C@H](C)NC(=O)CCNC(=O)C(C)(C)NC(=O)[C@H](C)NC(=O)[C@@H]1CCCN1C(=O)[C@@](C)(CC)NC(=O)[C@H](Cc1ccccc1)NC(=O)C1CCCN1C(=O)C(C)(C)NC(=O)C1CCCN1C(=O)C(C)(C)NC(C)=O)C(=O)NCCC(=O)N[C@@H](CC(C)C)C(=O)NC(C)(C)C(=O)NCCC(=O)N[C@@H](CC(C)C)C(=O)NC(C)(C)C(=O)NC(C)(C)C(=O)N[C@@H](CC(C)C)C(=O)NCCC(=O)NCO (stereo not given in full) (Ac-[Aib][ξP][Aib][ξP]F[dIva]PA[Aib][βAla]A[dIva][βAla]L[Aib][βAla]L[Aib][Aib]L[βAla]-X5)
[1]
  GI50: 0.145 µM
  TGI: 0.351 µM
[2]
  GI50: 0.218 µM
  TGI: 0.431 µM
[3]
  GI50: 0.199 µM
  TGI: 0.428 µM
[4]
  GI50: 0.132 µM
  TGI: 0.346 µM
[5]
  GI50: 0.187 µM
  TGI: 0.431 µM
[6]
  GI50: 0.0661 µM
  TGI: 0.275 µM
[7]
  GI50: 0.0991 µM
  TGI: 0.302 µM
[8]
  GI50: 0.208 µM
  TGI: 0.428 µM
[9]
  GI50: 0.101 µM
  TGI: 0.342 µM
[10]
  GI50: 0.131 µM
  TGI: 0.354 µM

## CC(=O)Nc1ccc(OCC(O)CO)cc1 (stereo not given)
[1]
  TGI: > 100 µM
[2]
  TGI: > 100 µM
[3]
  TGI: > 100 µM
[4]
  TGI: > 100 µM
[5]
  TGI: > 100 µM
[6]
  TGI: > 100 µM
[7]
  TGI: > 100 µM
[8]
  TGI: 73.1 µM
[9]
  TGI: > 100 µM
[10]
  TGI: > 100 µM

## CN1C(=O)C(C)(C)Oc2c(-c3cn(C)c(=O)c4[nH]ccc34)cc(S(C)(=O)=O)cc21
[1]
  GI50: 1.24 µM
  TGI: 2.86 µM
[2]
  GI50: 1.13 µM
  TGI: 12.2 µM
[3]
  GI50: 1.39 µM
  TGI: > 100 µM
[4]
  GI50: 0.741 µM
  TGI: 33.6 µM
[5]
  GI50: 3.92 µM
  TGI: > 100 µM
[6]
  GI50: 0.972 µM
  TGI: > 100 µM
[7]
  GI50: 1.34 µM
  TGI: 3.27 µM
[8]
  GI50: 0.462 µM
  TGI: 1.73 µM
[9]
  GI50: 2.26 µM
  TGI: > 100 µM
[10]
  GI50: 0.58 µM
  TGI: 40.3 µM

## CC1=C(C(=O)NCc2ccccc2)C(c2ccccc2O)C(C(=O)NCc2ccccc2)=C(C)N1
[1]
  TGI: 35.9 µM
[2]
  TGI: 28.5 µM
[3]
  TGI: 30.9 µM
[4]
  TGI: 35.4 µM
[5]
  TGI: 35.8 µM
[6]
  TGI: 45.6 µM
[7]
  TGI: 28.6 µM
[8]
  TGI: 30.1 µM
[9]
  TGI: 30.8 µM
[10]
  TGI: 38.5 µM

## CC(=O)N1c2ccc(-c3ccc(C(=O)O)cc3)cc2[C@H](Nc2ccc(Cl)cc2)C[C@@H]1C
[1]
  GI50: 0.371 µM
  TGI: 7.81 µM
[2]
  GI50: 0.266 µM
  TGI: 15.2 µM
[3]
  GI50: 0.41 µM
  TGI: 21.9 µM
[4]
  GI50: 0.686 µM
  TGI: > 100 µM
[5]
  GI50: 0.494 µM
  TGI: 34.8 µM
[6]
  GI50: 0.452 µM
  TGI: > 64 µM
[7]
  GI50: 0.357 µM
  TGI: 12.6 µM
[8]
  GI50: 0.0628 µM
  TGI: 3.48 µM
[9]
  GI50: 1.71 µM
  TGI: 19.9 µM
[10]
  GI50: 0.0622 µM
  TGI: 20.2 µM

## COC(=O)C(C(=O)C(=O)Nc1ccc(N)cc1[N+](=O)[O-])c1nc2ccc(Cl)cc2[nH]c1=O (stereo not given)
[1]
  TGI: > 100 µM
[2]
  TGI: > 100 µM
[3]
  TGI: > 100 µM
[4]
  TGI: > 100 µM
[5]
  TGI: > 100 µM
[6]
  TGI: > 100 µM
[7]
  TGI: > 100 µM
[8]
  TGI: > 100 µM
[9]
  TGI: > 100 µM
[10]
  TGI: > 100 µM

## CCC(=O)Oc1ccc(/C=N/NC(N)=S)nc1
[1]
  GI50: 13.6 µM
  TGI: > 100 µM
[2]
  GI50: 4.46 µM
  TGI: > 100 µM
[3]
  GI50: 1.01 µM
  TGI: 21 µM
[4]
  GI50: 3.92 µM
  TGI: > 100 µM
[5]
  GI50: 34.3 µM
  TGI: > 100 µM
[6]
  GI50: 43.7 µM
  TGI: > 100 µM
[7]
  GI50: 3.01 µM
  TGI: 77.2 µM
[8]
  GI50: 2.91 µM
  TGI: > 100 µM
[9]
  GI50: 9.72 µM
  TGI: 43.4 µM
[10]
  GI50: 1.51 µM
  TGI: 5.52 µM

## CN/N=C(/CC(=O)c1sc(NNC(C)=O)nc1C)C(=O)Nc1ccc(OC)cc1OC
[1]
  TGI: > 100 µM
[2]
  TGI: > 100 µM
[3]
  TGI: > 100 µM
[4]
  TGI: > 100 µM
[5]
  TGI: > 100 µM
[6]
  TGI: > 100 µM
[7]
  TGI: > 100 µM
[8]
  TGI: > 100 µM
[9]
  TGI: > 100 µM
[10]
  TGI: > 100 µM
